Reference: ChEMBL document CHEMBL3046061, “Quinolinedione nucleus as a novel scaffold for A1 and A2A adenosine receptor antagonists” (Med Chem Res, 2008)

Experiments:
[1] = molecular target: Uncharacterized protein (Bos taurus) (UniProt E1BKU0); experiment: Displacement of [3H]CGS21680 from adenosine A2A receptor in Bos taurus (bovine) cortical membrane at 10 uM
[2] = test system: cAMP phosphodiesterase 3 (Cavia porcellus); experiment: Inhibition of Cavia porcellus (guinea pig) PDE3 isolated from heart using [3H]cAMP as substrate at 1 uM by two-step method
[3] = molecular target: T1, Adenosine receptor A3 (Homo sapiens) (UniProt P0DMS8); experiment: Displacement of [125I]AB-MECA from Homo sapiens (human) adenosine A3 receptor expressed in CHO cells at 10 uM; format: cell-based
T1 sequence (whole entry): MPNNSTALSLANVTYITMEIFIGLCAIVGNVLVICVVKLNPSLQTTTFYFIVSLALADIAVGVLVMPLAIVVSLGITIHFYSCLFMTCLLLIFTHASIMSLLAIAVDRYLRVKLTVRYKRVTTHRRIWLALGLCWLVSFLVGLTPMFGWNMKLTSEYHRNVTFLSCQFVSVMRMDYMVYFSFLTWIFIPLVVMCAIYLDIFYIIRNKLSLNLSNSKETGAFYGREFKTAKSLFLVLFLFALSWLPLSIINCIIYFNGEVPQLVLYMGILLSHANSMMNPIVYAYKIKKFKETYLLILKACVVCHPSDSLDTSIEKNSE

[4] = test system: cAMP phosphodiesterase 3 (Cavia porcellus); experiment: Inhibition of Cavia porcellus (guinea pig) PDE3 isolated from heart using [3H]cAMP as substrate at 10 uM by two-step method
[5] = test system: cAMP phosphodiesterase 3 (Cavia porcellus); experiment: Inhibition of Cavia porcellus (guinea pig) PDE3 isolated from heart using [3H]cAMP as substrate at 100 uM by two-step method
[6] = molecular target: T2, Adenosine receptor A1 (Bos taurus) (UniProt P28190); experiment: Displacement of [3H]DPCPX from adenosine A1 receptor in Bos taurus (bovine) cortical membrane at 10 uM
T2 sequence (whole entry): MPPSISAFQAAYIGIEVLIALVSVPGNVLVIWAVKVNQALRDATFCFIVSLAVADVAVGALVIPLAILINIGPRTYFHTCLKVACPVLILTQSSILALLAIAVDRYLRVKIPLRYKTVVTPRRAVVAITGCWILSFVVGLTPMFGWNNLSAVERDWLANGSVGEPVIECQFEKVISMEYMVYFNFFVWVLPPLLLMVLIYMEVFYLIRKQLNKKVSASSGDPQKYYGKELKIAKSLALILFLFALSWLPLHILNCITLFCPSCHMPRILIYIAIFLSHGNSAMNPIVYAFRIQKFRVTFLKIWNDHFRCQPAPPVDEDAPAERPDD

[7] = test system: cAMP phosphodiesterase 3 (Cavia porcellus); experiment: Inhibition of Cavia porcellus (guinea pig) PDE3 isolated from heart using [3H]cAMP as substrate at 50 uM by two-step method
Adenosine receptor A1 [8] = molecular target: T3, Adenosine receptor A1 (Bos taurus, UniProt P28190); experiment: Displacement of [3H]DPCPX from adenosine A1 receptor in Bos taurus (bovine) cortical membrane
T3 sequence (P28190 whole entry): T2 sequence (whole entry)

Uncharacterized protein = Uncharacterized protein (Bos taurus, UniProt E1BKU0); experiment: Displacement of [3H]CGS21680 from adenosine A2A receptor in Bos taurus (bovine) cortical membrane
Uncharacterized protein, sequence (E1BKU0 whole entry): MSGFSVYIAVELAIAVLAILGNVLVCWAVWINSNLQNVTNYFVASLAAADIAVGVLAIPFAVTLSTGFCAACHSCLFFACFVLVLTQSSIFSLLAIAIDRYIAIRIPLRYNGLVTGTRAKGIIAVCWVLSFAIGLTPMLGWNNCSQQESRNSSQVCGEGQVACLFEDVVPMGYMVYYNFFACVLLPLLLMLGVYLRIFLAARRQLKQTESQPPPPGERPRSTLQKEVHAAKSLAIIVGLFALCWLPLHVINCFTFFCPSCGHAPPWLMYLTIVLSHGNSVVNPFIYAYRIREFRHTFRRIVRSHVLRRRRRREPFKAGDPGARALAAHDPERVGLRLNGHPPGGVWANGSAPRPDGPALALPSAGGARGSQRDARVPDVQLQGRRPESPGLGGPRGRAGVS

[9] = molecular target: T4, Adenosine receptor A1 (Homo sapiens) (UniProt P30542); experiment: Displacement of [3H]DPCPX from Homo sapiens (human) adenosine A1 receptor expressed in CHO cells at 10 uM; format: cell-based
T4 sequence (whole entry): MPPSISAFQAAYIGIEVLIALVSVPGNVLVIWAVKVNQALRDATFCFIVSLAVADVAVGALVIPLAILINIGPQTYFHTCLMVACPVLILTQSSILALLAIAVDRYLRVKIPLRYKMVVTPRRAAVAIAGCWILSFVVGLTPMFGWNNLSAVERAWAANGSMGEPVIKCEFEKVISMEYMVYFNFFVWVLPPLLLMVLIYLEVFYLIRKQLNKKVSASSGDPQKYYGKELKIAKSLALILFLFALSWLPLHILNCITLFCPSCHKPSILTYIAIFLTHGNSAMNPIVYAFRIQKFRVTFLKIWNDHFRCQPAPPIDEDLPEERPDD

Adenosine receptor A2a [10] = molecular target: T5, Adenosine receptor A2a (Homo sapiens, UniProt P29274); experiment: Displacement of [3H]CGS21680 from Homo sapiens (human) adenosine A2A receptor expressed in CHO cells; format: cell-based
T5 sequence (P29274 whole entry): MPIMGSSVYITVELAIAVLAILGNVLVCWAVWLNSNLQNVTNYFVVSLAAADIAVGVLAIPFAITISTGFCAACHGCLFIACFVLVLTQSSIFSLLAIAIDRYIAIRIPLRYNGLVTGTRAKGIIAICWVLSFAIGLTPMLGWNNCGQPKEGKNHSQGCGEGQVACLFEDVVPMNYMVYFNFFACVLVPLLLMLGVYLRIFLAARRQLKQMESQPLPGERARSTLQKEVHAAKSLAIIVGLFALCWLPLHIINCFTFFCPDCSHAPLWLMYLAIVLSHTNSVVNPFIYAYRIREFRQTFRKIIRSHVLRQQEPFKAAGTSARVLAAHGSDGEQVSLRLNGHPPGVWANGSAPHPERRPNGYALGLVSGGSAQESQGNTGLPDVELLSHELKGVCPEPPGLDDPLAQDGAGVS

Adenosine receptor A2a [11] = molecular target: T5, Adenosine receptor A2a; experiment: Displacement of [3H]CGS21680 from Homo sapiens (human) adenosine A2A receptor expressed in CHO cells at 10 uM; format: cell-based
Adenosine receptor A1 [12] = molecular target: T6, Adenosine receptor A1 (Homo sapiens, UniProt P30542); experiment: Displacement of [3H]DPCPX from Homo sapiens (human) adenosine A1 receptor expressed in CHO cells; format: cell-based
T6 sequence (P30542 whole entry): T4 sequence (whole entry)

Uncharacterized protein (Bos taurus), sequence (E1BKU0 as listed by the source): as the sequence (E1BKU0 whole entry) above

Row | inhibition [1] [%] | inhibition [2] [%] | inhibition [3] [%] | inhibition [4] [%] | inhibition [5] [%] | inhibition [6] [%] | inhibition [7] [%] | Ki (Adenosine receptor A1 [8]) [µM] | Ki (Uncharacterized protein) [µM] | inhibition [9] [%] | Ki (Adenosine receptor A2a [10]) [µM] | inhibition (Adenosine receptor A2a [11]) [%] | Ki (Adenosine receptor A1 [12]) [µM] | Structure (SMILES)
1 | 11 | 0 | 13 | 1.15 | 8.23 | 0 | 2.15 |  |  |  |  |  |  | CC(=O)c1cc(C(=O)C(C)(C)C)c(=O)[nH]c1C
2 | 8 | 0 | 2 | 1.76 | 9.6 | 13 | 5.4 |  |  | 2 |  | 13 |  | O=C(c1ccccc1)c1cc(C(=O)c2ccccc2)c(=O)[nH]c1-c1ccccc1
3 | 0 | 0 | 0 | 5.2 | 7.8 |  | 1.7 | 6.5 |  | 5 |  | 16 |  | O=C1CC(c2ccccc2)Cc2[nH]c(=O)c(C(=O)c3ccccc3)cc21 (centres undefined)
4 | 2 | 0 | 0 | 0 | 5.7 | 10 | 4.7 |  |  | 36 |  |  |  | O=C1CCCc2[nH]c(=O)c(S(=O)(=O)c3ccccc3)cc21

The remaining lines, values behind:

Row | Structure (SMILES) | inhibition [1] [%] | inhibition [2] [%] | inhibition [3] [%] | inhibition [4] [%] | inhibition [5] [%] | inhibition [6] [%] | inhibition [7] [%] | Ki (Adenosine receptor A1 [8]) [µM] | Ki (Uncharacterized protein) [µM] | inhibition [9] [%] | Ki (Adenosine receptor A2a [10]) [µM] | inhibition (Adenosine receptor A2a [11]) [%] | Ki (Adenosine receptor A1 [12]) [µM]
5 | CC(C)(C)C(=O)c1cc2c([nH]c1=O)CC(c1ccccc1)CC2=O (centres undefined) |  | 0 | 21 | 0.8 | 4.2 |  | 3.3 | 5.1 | 15 | 11 | 16 |  | 
6 | CC(C)(C)C(=O)c1cc2c([nH]c1=O)CCCC2=O | 0 | 0 | 0 | 2.5 | 6.6 | 13 | 6.6 |  |  | 0 |  |  | 
7 | CC(=O)c1cc(S(=O)(=O)c2ccccc2)c(=O)[nH]c1C | 0 | 0 | 0 | 1.03 | 8.72 | 0 | 3.98 |  |  |  |  |  | 
8 | CC(=O)c1cc(C(=O)c2ccccc2)c(=O)[nH]c1C | 0 | 0 | 0 | 2 | 8.9 | 0 | 4.35 |  |  |  |  |  | 
9 | O=C(c1ccccc1)c1cc(S(=O)(=O)c2ccccc2)c(=O)[nH]c1-c1ccccc1 | 8 | 0 | 0 | 0 | 7.53 | 8 | 3.5 |  |  | 1 |  | 11 | 
10 | O=C1CC(c2ccccc2)Cc2[nH]c(=O)c(S(=O)(=O)c3ccccc3)cc21 (centres undefined) |  | 0 | 18 | 0 | 10.4 |  | 5.7 | 5.8 | 7.9 |  | 7 |  | 7.8
11 | O=C1CCCc2[nH]c(=O)c(C(=O)c3ccccc3)cc21 | 4 | 0 | 0 | 0 | 6 | 6 | 4.3 |  |  |  |  |  | 
